Measurements: US9637473B2, “Acrylamide derivatives as antimalarial agents” (priority 2013, dated 2017)
Where a name gives a salt, the structure may show the parent alone.

System: P. Falciparum NF54
Assay: Plasmodium falciparum in vitro assay ([3H]-hypoxanthine incorporation)
Type: cell-based
Conditions: Plasmodium falciparum, Erythrocyte, P. Falciparum NF54, erythrocytic stages in human red blood cells, 50% human serum
Method in brief: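 Activity against the blood stages of Plasmodium falciparum growing in human red blood cells was measured by how much [3H]-hypoxanthine the parasites took up. Filters were dried, sealed in plastic foil containing 10 mL of scintillation fluid, and read on a Betaplate liquid scintillation counter. IC50 values came from sigmoidal inhibition curves fitted in Microsoft Excel.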

In order of falling IC50:
1. Cc1cc(Nc2ccc(CN(C(=O)/C=C/c3ccc(C(F)(F)F)cc3)C3CCN(Cc4nc(C)cs4)CC3)cc2)ccn1 [Example 42, (E)-N-[4-(2-Methyl-pyridin-4-ylamino)-benzyl]-N-[1-(4-methyl-thiazol-2-ylmethyl)-piperidin-4-yl]-3-(4-trifluoromethyl-phenyl)-acrylamide]  343 nM
2. Cc1cc(Nc2ccc(CN(C(=O)/C=C/c3ccc(Cl)cc3)C(C)CN(C)C)cc2)ccn1 (stereo not shown) [Example 209, (E)-3-(4-Chloro-phenyl)-N-(2-dimethylamino-1-methyl-ethyl)-N-[4-(2-methyl-pyridin-4-ylamino)-benzyl]-acrylamide]  172 nM
3. Cc1cc(Nc2ccc(CN(C(=O)/C=C/c3ccc(C(F)(F)F)cc3)C3CCN(Cc4ncn5ccccc45)CC3)cc2)ccn1 [Example 45, (E)-N-(1-Imidazo[1,5-a]pyridin-1-ylmethyl-piperidin-4-yl)-N-[4-(2-methyl-pyridin-4-ylamino)-benzyl]-3-(4-trifluoromethyl-phenyl)-acrylamide]  168 nM
4. Cc1ccccc1/C=C/C(=O)N(Cc1ccc(N(C)c2ccncc2)cc1)C1CCN(Cc2ccccc2)CC1 [Example 160, (E)-N-(1-Benzyl-piperidin-4-yl)-N-[4-(methyl-pyridin-4-yl-amino)-benzyl]-3-o-tolyl-acrylamide]  167 nM
5. CN(c1ccncc1)c1ccc(CN(C(=O)/C=C/c2ccc(S(C)(=O)=O)cc2)C2CCN(Cc3ccccc3)CC2)cc1 [Example 162, (E)-N-(1-Benzyl-piperidin-4-yl)-3-(4-methanesulfonyl-phenyl)-N-[4-(methyl-pyridin-4-yl-amino)-benzyl]-acrylamide]  160 nM
6. CN1CCC(Nc2ccc(CN(C(=O)/C=C/c3ccc(C(F)(F)F)cc3)C3CCN(C4CCCC4)CC3)cn2)CC1 [Example 105, (E)-N-(1-Cyclopentyl-piperidin-4-yl)-N-[6-(1-methyl-piperidin-4-ylamino)-pyridin-3-ylmethyl]-3-(4-trifluoromethyl-phenyl)-acrylamide]  152 nM
7. CCN1CCC[C@H](N(Cc2ccc(N(C)c3ccncc3)cc2)C(=O)/C=C/c2ccc(C(F)(F)F)cc2)C1 [Example 82, (E)-N-((S)-1-Ethyl-piperidin-3-yl)-N-[4-(methyl-pyridin-4-yl-amino)-benzyl]-3-(4-trifluoromethyl-phenyl)-acrylamide]  140 nM
8. CN(c1ccncc1)c1ccc(CN(C(=O)/C=C/c2ccc(C(F)(F)F)cc2)C2CCN(Cc3ccc(Cl)c(Cl)c3)CC2)cc1 [Example 11, (E)-N-[1-(3,4-Dichloro-benzyl)-piperidin-4-yl]-N-[4-(methyl-pyridin-4-yl-amino)-benzyl]-3-(4-trifluoromethyl-phenyl)-acrylamide]  84 nM
9. CN(c1ccncc1)c1ccc(CN(C(=O)/C=C/c2ccc(C(F)(F)F)cc2)C2CN(C3CCCC3)C2)cc1 [Example 102, (E)-N-(1-Cyclopentyl-azetidin-3-yl)-N-[4-(methyl-pyridin-4-yl-amino)-benzyl]-3-(4-trifluoromethyl-phenyl)-acrylamide]  81 nM
10. CN(c1ccncc1)c1ccc(CN(C(=O)/C=C/c2ccc(C(F)(F)F)cc2)C2CCN(C3CCCC3)CC2)cn1 [Example 104, (E)-N-(1-Cyclopentyl-piperidin-4-yl)-N-[6-(methyl-pyridin-4-yl-amino)-pyridin-3-ylmethyl]-3-(4-trifluoromethyl-phenyl)-acrylamide]  60 nM
11. CN(c1ccncc1)c1ccc(CN(C(=O)/C=C/c2ccc(C(F)(F)F)cc2)C2CCN(Cc3cncn3C)CC2)cc1 [Example 19, (E)-N-[1-(3-Methyl-3H-imidazol-4-ylmethyl)-piperidin-4-yl]-N-[4-(methyl-pyridin-4-yl-amino)-benzyl]-3-(4-trifluoromethyl-phenyl)-acrylamide]  54 nM
12. CC(C)CCN1CC[C@H](N(Cc2ccc(N(C)c3ccncc3)cc2)C(=O)/C=C/c2ccc(C(F)(F)F)cc2)[C@H](F)C1 (racemic) [Example 77, (±)-(E)-N-(cis-3-fluoro-1-isopentylpiperidin-4-yl)-N-(4-(methyl(pyridin-4-yl)amino)benzyl)-3-(4-(trifluoromethyl)phenyl)acrylamide]  53 nM
13. CN1CCC(N2CCC(N(Cc3ccc(N(C)c4ccncc4)cc3)C(=O)/C=C/c3ccc(C(F)(F)F)nc3)CC2)CC1 [Example 183, (E)-N-(1′-Methyl-[1,4′]bipiperidinyl-4-yl)-N-[4-(methyl-pyridin-4-yl-amino)-benzyl]-3-(6-trifluoromethyl-pyridin-3-yl)-acrylamide]  49 nM
14. COCC(C)N1CCC(N(Cc2ccc(Nc3ccnc(C)c3)cc2)C(=O)/C=C/c2ccc(C(F)(F)F)cc2)CC1 (racemic) [Example 84, (±)-(E)-N-[1-(2-Methoxy-1-methyl-ethyl)-piperidin-4-yl]-N-[4-(2-methyl-pyridin-4-ylamino)-benzyl]-3-(4-trifluoromethyl-phenyl)-acrylamide]  42 nM
15. CN(c1ccncc1)c1ccc(CN(C(=O)/C=C/c2ccc(C(F)(F)F)cc2)C2CCN(Cc3ccn4ccnc4c3)CC2)cc1 [Example 25, (E)-N-(1-Imidazo[1,2-a]pyridin-7-ylmethyl-piperidin-4-yl)-N-[4-(methyl-pyridin-4-yl-amino)-benzyl]-3-(4-trifluoromethyl-phenyl)-acrylamide]  41 nM
16. CC(C)N1CCC(N(Cc2cccc(Nc3ccncc3)c2)C(=O)/C=C/c2ccc(C(F)(F)F)cc2)CC1 [Example 126, (E)-N-(1-Isopropyl-piperidin-4-yl)-N-[3-(pyridin-4-ylamino)-benzyl]-3-(4-trifluoromethyl-phenyl)-acrylamide formate]  30 nM
